ChEMBL document CHEMBL1152118, “Synthesis and pharmacological profile of two novel heterocyclic chromanols, CP-80,798 and CP-85,958, as potent LTD4 receptor antagonists” (Bioorg Med Chem Lett, 1995)

Tests used:
[1] = target: T1, Cysteinyl leukotriene receptor 1 (Cavia porcellus, UniProt Q2NNR5); experiment: Inhibition of [3H]LTD4 binding to LTD4 receptor in guinea pig lung membranes; format: cell membranes, Membrane
T1 sequence (Q2NNR5 whole entry): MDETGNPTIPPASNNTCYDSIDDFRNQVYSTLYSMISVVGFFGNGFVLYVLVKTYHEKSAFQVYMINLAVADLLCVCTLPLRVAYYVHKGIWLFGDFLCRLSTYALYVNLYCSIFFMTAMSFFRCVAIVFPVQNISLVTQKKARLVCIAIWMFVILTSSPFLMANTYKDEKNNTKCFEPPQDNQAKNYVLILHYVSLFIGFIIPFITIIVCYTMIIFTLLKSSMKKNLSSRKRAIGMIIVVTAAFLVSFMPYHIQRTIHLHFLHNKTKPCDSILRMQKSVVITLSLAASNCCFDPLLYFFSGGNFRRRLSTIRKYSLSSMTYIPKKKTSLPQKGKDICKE

[2] = test system: Cavia porcellus; experiment: Inhibitory activity against LTD4 challenged pulmonary function test by oral administration; format: functional
[3] = test system: Cavia porcellus; experiment: Dose required to block the airway obstruction induced by aerosolized antigen by oral administration; format: functional
[4] = test system: Cavia porcellus; experiment: Inhibitory activity against LTD4 challenged pulmonary function test by oral administration (2 hr preantigen); format: functional
[5] = target: T2, Polyunsaturated fatty acid 5-lipoxygenase (Rattus norvegicus, UniProt P12527); experiment: Inhibition of 5-Lipoxygenase (5-LO) in rat basophilic leukemia cells; format: cell-based, RBL-1
T2 sequence (P12527 whole entry): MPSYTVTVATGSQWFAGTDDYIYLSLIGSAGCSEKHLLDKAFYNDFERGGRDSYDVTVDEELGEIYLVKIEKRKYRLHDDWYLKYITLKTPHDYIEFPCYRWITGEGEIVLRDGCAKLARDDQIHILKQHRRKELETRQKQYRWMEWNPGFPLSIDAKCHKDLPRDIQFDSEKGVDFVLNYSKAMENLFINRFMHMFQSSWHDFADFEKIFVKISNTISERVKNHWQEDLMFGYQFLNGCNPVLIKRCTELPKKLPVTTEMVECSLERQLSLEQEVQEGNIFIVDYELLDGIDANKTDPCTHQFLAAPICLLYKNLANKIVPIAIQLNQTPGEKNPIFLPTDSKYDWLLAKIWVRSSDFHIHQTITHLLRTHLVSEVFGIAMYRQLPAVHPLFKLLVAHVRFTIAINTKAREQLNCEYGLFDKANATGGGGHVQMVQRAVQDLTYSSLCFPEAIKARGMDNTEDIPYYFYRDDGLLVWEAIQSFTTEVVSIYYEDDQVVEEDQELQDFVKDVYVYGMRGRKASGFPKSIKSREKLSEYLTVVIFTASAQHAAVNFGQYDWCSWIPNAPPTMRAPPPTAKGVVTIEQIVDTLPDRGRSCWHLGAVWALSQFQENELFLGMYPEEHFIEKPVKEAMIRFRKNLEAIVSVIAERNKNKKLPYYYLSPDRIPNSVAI

Compound | Ki [1] | ED50 [2] | ED50 [3] | ED50 [4] | IC50 [5]
CCCCC1CCc2ccc(OCc3ccc4ccccc4n3)cc2C1O (stereo not drawn) | 6.8 µM | – | – | – | –
O=C(O)c1cccc(C[C@@H]2COc3ccc(OCc4nc5cc(F)ccc5s4)cc3[C@@H]2O)c1 | 24 µM | 0.49 mg/kg | 10.8 mg/kg | 0.43 mg/kg | 8.1 µM
CCCCCC(O)c1cccc(OCc2ccc3ccccc3n2)c1 (stereo not drawn) [REV-5901] | 8 µM | – | – | – | –
O[C@@H]1c2cc(OCc3ccc4ccccc4n3)ccc2CC[C@H]1Cc1ccccc1 | 1.5 µM | – | – | – | –
O[C@@H]1c2cc(OCc3ccc4ccccc4n3)ccc2OC[C@@H]1Cc1cccnc1 | 0.65 µM | 3 mg/kg | 16 mg/kg | 20 mg/kg | 1.9 µM
